What was measured:
Type in all cases: in vivo
[1] = test system: lambsquarters (Chenopodium album); test: General postemergence herbicidal activity, lambsquarters; conditions: post-emergence, 336 h, postemergence, after 14 d, 0 = no injury, 100 = complete kill, read-out: CHEAL % Visual Injury; for pest or weed control at 35 g/ha: 35 g ai/ha; for pest or weed control at 280 g/ha: 280 g ai/ha; for pest or weed control at 70 g/ha: 70 g ai/ha; for pest or weed control at 140 g/ha: 140 g ai/ha
Experimental: (§1) Seeds or nutlets of the desired test plant species were planted in Sun Gro MetroMix® 360 planting mixture, which typically has a pH of 6.0 to 6.8 and an organic matter content of about 30 percent, in plastic pots with a surface area of 64 square centimeters (cm^2). When required to ensure good germination and healthy plants, a fungicide treatment and/or other chemical or physical treatment was applied. The plants were grown for 7-21 days (d) in a greenhouse with an approximate 15-hour (h) photoperiod which was maintained at about 23-29° C. during the day and 22-28° C. during the night. Nutrients and water were added on a regular basis and supplemental lighting was provided with overhead metal halide 1000-Watt lamps as necessary. The plants were employed for testing when they reached the first or second true leaf stage.
(§2) A weighed amount, determined by the highest rate to be tested, of each test compound was dissolved in 4 mL of a 97:3 volume per volume (v/v) mixture of acetone and dimethyl sulfoxide (DMSO) to obtain concentrated stock solutions. […] The concentrated stock solutions obtained were diluted with 20 mL of an aqueous mixture containing acetone, water, isopropyl alcohol, DMSO, Atplus 411F crop oil concentrate, and Triton X-155 surfactant in a 48.5:39:10:1.5:1.0:0.02 v/v ratio to obtain spray solutions containing the highest application rates. Additional application rates were obtained by serial dilution of 12 mL of the high rate solution into a solution containing 2 mL of 97:3 v/v mixture of acetone and DMSO and 10 mL of an aqueous mixture containing acetone, water, isopropyl alcohol, DMSO, Atplus 411F crop oil concentrate, and Triton X-155 surfactant in a 48.5:39:10:1.5:1.0:0.02 v/v ratio to obtain ½×, ¼×, ⅛× and 1/16× rates of the high rate. Compound requirements are based upon a 12 mL application volume at a rate of 187 liters per hectare (L/ha). Formulated compounds were applied to the plant material with an overhead Mandel track sprayer equipped with 8002E nozzles calibrated to deliver 187 L/ha over an application area of 0.503 square meters (m^2) at a spray height of 18 inches (43 cm) above the average plant canopy height. Control plants were sprayed in the same manner with the solvent blank.
(§3) The treated plants and control plants were placed in a greenhouse as described above and watered by sub-irrigation to prevent wash-off of the test compounds. After 14 d, the condition of the test plants as compared with that of the untreated plants was determined visually and scored on a scale of 0 to 100 percent where 0 corresponds to no injury and 100 corresponds to complete kill.

corn (Zea mays) = test: General postemergence herbicidal activity, corn; conditions: post-emergence, 336 h, postemergence, after 14 d, 0 = no injury, 100 = complete kill, read-out: ZEAMX % Visual Injury; for plant injury at 35 g/ha: 35 g ai/ha; for plant injury at 280 g/ha: 280 g ai/ha; for plant injury at 70 g/ha: 70 g ai/ha; for plant injury at 140 g/ha: 140 g ai/ha
Experimental: as §1, §2, §3

[2] = test system: velvetleaf (Abutilon theophrasti); test: General postemergence herbicidal activity, velvetleaf; conditions: post-emergence, 336 h, postemergence, after 14 d, 0 = no injury, 100 = complete kill, read-out: ABUTH % Visual Injury; for pest or weed control at 35 g/ha: 35 g ai/ha; for pest or weed control at 280 g/ha: 280 g ai/ha; for pest or weed control at 70 g/ha: 70 g ai/ha; for pest or weed control at 140 g/ha: 140 g ai/ha
Experimental: as §1, §2, §3

[3] = test system: wild buckwheat (Polygonum convululus); test: General postemergence herbicidal activity, wild buckwheat; conditions: post-emergence, 336 h, postemergence, after 14 d, 0 = no injury, 100 = complete kill, read-out: POLCO % Visual Injury; for pest or weed control at 35 g/ha: 35 g ai/ha; for pest or weed control at 280 g/ha: 280 g ai/ha; for pest or weed control at 70 g/ha: 70 g ai/ha; for pest or weed control at 140 g/ha: 140 g ai/ha
Experimental: as §1, §2, §3

SMILES	pest or weed control at 35 g/ha [1]	plant injury at 35 g/ha (corn (Zea mays))	pest or weed control at 35 g/ha [2]	pest or weed control at 35 g/ha [3]	pest or weed control at 70 g/ha [1]	plant injury at 70 g/ha (corn (Zea mays))	pest or weed control at 70 g/ha [2]	pest or weed control at 70 g/ha [3]	also measured
COCCOCONC(=O)c1nc(-c2ccc(Cl)c(OC)c2F)cc(N)c1Cl [Compound 51, 4-Amino-3-chloro-6-(4-chloro-2-fluoro-3-methoxyphenyl)-N-((2-methoxyethoxy)-methoxy)picolinamide]	100%	35%	100%	100%					
COCCONC(=O)c1nc(-c2ccc(Cl)c(OC)c2F)cc(N)c1Cl [Compound 49, 4-Amino-3-chloro-6-(4-chloro-2-fluoro-3-methoxyphenyl)-N-(2-methoxy-ethoxy)picolinamide]									pest or weed control at 280 g/ha [1]: 100%; plant injury at 280 g/ha (corn (Zea mays)): 0%; pest or weed control at 280 g/ha [2]: 100%; pest or weed control at 280 g/ha [3]: 100%
COc1c(Cl)ccc(-c2cc(N)c(Cl)c(C(=O)NOCCC#N)n2)c1F [Compound 50, 4-Amino-3-chloro-6-(4-chloro-2-fluoro-3-methoxyphenyl)-N-(2-cyanoethoxy)picolinamide]									pest or weed control at 280 g/ha [1]: 100%; plant injury at 280 g/ha (corn (Zea mays)): 10%; pest or weed control at 280 g/ha [2]: 100%; pest or weed control at 280 g/ha [3]: 90%
COc1c(Cl)ccc(-c2cc(N)c(Cl)c(C(=O)NOCc3ccco3)n2)c1F [Compound 42, 4-Amino-3-chloro-6-(4-chloro-2-fluoro-3-methoxyphenyl)-N-(furan-2-yl-methoxy)picolinamide]					100%	15%	100%	100%	
COc1c(Cl)ccc(-c2cc(N)c(Cl)c(C(=O)NOCC(=O)O)n2)c1F [Compound 19, 2-(4-Amino-3-chloro-6-(4-chloro-2-fluoro-3-methoxyphenyl)picolinamidooxy)acetic acid]	100%	25%	85%	85%					
COc1c(Cl)ccc(-c2cc(N)c(Cl)c(C(=O)N(C)OC)n2)c1F [Compound 6, 4-Amino-3-chloro-6-(4-chloro-2-fluoro-3-methoxyphenyl)-N-methoxy-N-methyl-picolinamide]					100%	0%	100%	100%	
COc1c(Cl)ccc(-c2cc(N)c(Cl)c(C(=O)NOCc3ccc(C)cc3)n2)c1F [Compound 14, 4-Amino-3-chloro-6-(4-chloro-2-fluoro-3-methoxyphenyl)-N-(4-methyl-benzyloxy)picolinamide]					100%	15%	100%	100%	
COc1c(N)nc(-c2ccc(Cl)c(F)c2F)nc1C(=O)NO [Compound 58, 6-Amino-2-(4-chloro-2,3-difluorophenyl)-N-hydroxy-5-methoxypyrimidine-4-carboxamide]									pest or weed control at 280 g/ha [1]: 100%; plant injury at 280 g/ha (corn (Zea mays)): 0%; pest or weed control at 280 g/ha [2]: 90%; pest or weed control at 280 g/ha [3]: 100%
C=CCON(C)C(=O)c1nc(-c2ccc(Cl)c(OC)c2F)cc(N)c1Cl [Compound 26, N-(2-Propenyloxy)-4-amino-3-chloro-6-(4-chloro-2-fluoro-3-methoxyphenyl)-N-methylpicolinamide]									pest or weed control at 140 g/ha [1]: 100%; plant injury at 140 g/ha (corn (Zea mays)): 0%; pest or weed control at 140 g/ha [2]: 95%; pest or weed control at 140 g/ha [3]: 95%
COc1c(Cl)ccc(-c2cc(N)c(Cl)c(C(=O)NOC(C)(C)C)n2)c1F [Compound 21, 4-Amino-N-tert-butoxy-3-chloro-6-(4-chloro-2-fluoro-3-methoxyphenyl)picolinamide]									pest or weed control at 140 g/ha [1]: 95%; plant injury at 140 g/ha (corn (Zea mays)): 0%; pest or weed control at 140 g/ha [2]: 100%; pest or weed control at 140 g/ha [3]: 95%
CCCONC(=O)c1nc(-c2ccc(Cl)c(OC)c2F)cc(N)c1Cl [Compound 7, 4-Amino-3-chloro-6-(4-chloro-2-fluoro-3-methoxyphenyl)-N-propoxypicolinamide]	100%	25%	100%	100%					
COc1c(Cl)ccc(-c2cc(N)c(Cl)c(C(=O)NOCc3ccc(Cl)cc3)n2)c1F [Compound 15, 4-Amino-3-chloro-6-(4-chloro-2-fluoro-3-methoxyphenyl)-N-(4-chloro-benzyloxy)picolinamide]					100%	10%	100%	100%	
COc1c(Cl)ccc(-c2cc(N)c(Cl)c(C(=O)NOCc3ccc(F)cc3)n2)c1F [Compound 22, 4-Amino-3-chloro-6-(4-chloro-2-fluoro-3-methoxyphenyl)-N-(4-fluoro-benzyloxy)picolinamide]	100%	10%	100%	100%					
CCCCONC(=O)c1nc(-c2ccc(Cl)c(OC)c2F)cc(N)c1Cl [Compound 46, 4-Amino-N-butoxy-3-chloro-6-(4-chloro-2-fluoro-3-methoxyphenyl)picolinamide]					100%	25%	100%	100%	
COc1c(Cl)ccc(-c2cc(N)c(Cl)c(C(=O)NOCc3ccccc3)n2)c1F [Compound 5, 4-Amino-N-(benzyloxy)-3-chloro-6-(4-chloro-2-fluoro-3-methoxyphenyl)picolinamide]	100%	0%	100%	100%					
COc1c(Cl)ccc(-c2cc(N)c(Cl)c(C(=O)NO)n2)c1F [Compound 57, 4-amino-3-chloro-6-(4-chloro-2-fluoro-3-methoxyphenyl)-N-hydroxypicolinamide]									pest or weed control at 17.5 g/ha ([1]; 17.5 g ai/ha): 95%; plant injury at 17.5 g/ha (corn (Zea mays); 17.5 g ai/ha): 0%; pest or weed control at 17.5 g/ha ([2]; 17.5 g ai/ha): 90%; pest or weed control at 17.5 g/ha ([3]; 17.5 g ai/ha): 95%
